Data: ChEMBL document CHEMBL3832062, “DailyMed|setid=a9c47f08-bd02-4731-aaf7-42173155b2d0 | XENICAL- orlistat capsule|A-S Medication Solutions LLC”

Assay: Pharmacokinetic parameters for Orlistat evaluated after of oral administration of Orlistat capsules.
Assay type: ADME, organism-based
Conditions: human, in vivo, dosed compound id 42, dosed compound name ORLISTAT, tissue Plasma

## CCCCCCCCCCC[C@@H](C[C@@H]1OC(=O)[C@H]1CCCCCC)OC(=O)[C@H](CC(C)C)NC=O [ORLISTAT]
  half-life: 1 to 2 h
read-out: Protein binding
  fraction unbound: 0.01 to 0.99
